# Results reported in ChEMBL document CHEMBL5154641, “Targeting transthyretin in Alzheimer's disease: Drug discovery of small-molecule chaperones as disease-modifying drug candidates for Alzheimer's disease” (Eur J Med Chem, 2021).
# pKd: −log10 of the molar value. Activity calls are given as the source filed them. The calls are words filed in the database; no cut-off is given here.
# How the values were obtained:
# [1] = molecular target: Transthyretin (Homo sapiens) (UniProt P02766); experiment: Displacement of [125I]-T4 from human recombinant TTR expressed in Escherichia coli BL21(DE3) Star by gamma spectrometric analysis
# [2] = Binding affinity to wild type TTR/Amyloid beta (1 to 40 residues) binary complex (unknown origin) assessed as complex dissociation constant by isothermal titration calorimetry; design: species or system Homo sapiens
# Homo sapiens [3] = species: Homo sapiens; experiment: Binding affinity to wild type TTR/Amyloid beta (1 to 40 residues) binary complex (unknown origin) assessed as Gibbs free energy change for binary complex by isothermal titration calorimetry
# Homo sapiens [4] = species: Homo sapiens; experiment: Binding affinity to wild type TTR/Amyloid beta (1 to 40 residues) binary complex (unknown origin) assessed as change in enthalpy binary by isothermal titration calorimetry
# Homo sapiens [5] = species: Homo sapiens; experiment: Binding affinity to wild type TTR/Amyloid beta (1 to 40 residues) binary complex (unknown origin) assessed as change in entropy for binary complex by isothermal titration calorimetry
# SH-SY5Y = experiment: Neuroprotective activity against amyloid beta (1 to 42 residues)-induced cell injury in human SH-SY5Y cells assessed as reduction in caspase 3 level; format: functional, cell-based
SMILES,Activity [1],pKd [2],deltaG (Homo sapiens [3]) [kcal/mol],deltaH (Homo sapiens [4]) [kcal/mol],-TdeltaS (Homo sapiens [5]) [kcal/mol],Activity (SH-SY5Y)
C=Cc1cc2oc(-c3ccc(O)c(F)c3)nc2cc1O,Active,–,–,–,–,–
Cc1ccc(C(=O)c2cc(O)c(O)c([N+](=O)[O-])c2)cc1,Active,–,–,–,–,–
O=C(O)c1cc(/N=N/c2ccc(O)c(C(=O)O)c2)ccc1O [OLSALAZINE],–,6.09,-8.7,-8.72,0.02,Active
O=C(O)c1cc(/N=N/c2cccc([N+](=O)[O-])c2)ccc1O,Active,–,–,–,–,–
O=C(O)c1cc(-c2ccc(F)cc2F)cc(I)c1O,Active,–,-7.67,-1.54,-6.13,Active
Oc1c(I)cc(Cl)c2cccnc12,Active,–,–,–,–,–
Oc1c(I)cc(I)cc1I,Active,–,–,–,–,–
O=C(O)c1ccc2nc(-c3cc(Cl)cc(Cl)c3)oc2c1,Active,–,–,–,–,–
CCCCN(CCCC)C[C@H](O)c1cc(Cl)cc2c1-c1ccc(Cl)cc1/C2=C/c1ccc(Cl)cc1,Active,–,–,–,–,–
O=C(O)CCNC(=O)CCNC(=O)c1cc(-c2ccc(F)cc2F)cc(I)c1O,Active,–,–,–,–,–
O=C(O)c1cc(/N=N/c2cccc([N+](=O)[O-])c2)cc(I)c1O,Active,–,–,–,–,–
O=c1cc(-c2ccc(O)c(O)c2)oc2cc(O)cc(O)c12 [LUTEOLIN],Active,5.82,-7.93,-0.53,7.3,Active
CC/C(=C(/CC)c1ccc(O)cc1)c1ccc(O)cc1,Active,–,–,–,–,–
CCc1ccc(CCOc2ccc(CC3SC(=O)NC3=O)cc2)nc1 (stereo not drawn),Active,–,–,–,–,–
COc1ccccc1Oc1ccc(N(Cc2cccnc2)S(=O)(=O)CC(F)(F)F)cc1,Active,–,–,–,–,–
O=C(O)c1cc(-c2ccc3ccccc3c2)cc(I)c1O,Active,–,–,–,–,–
CC1=C(CC(=O)O)c2cc(F)ccc2/C1=C\c1ccc([S+](C)[O-])cc1 (stereo not drawn) [SULINDAC],–,5.47,-8.15,-3.23,-4.92,–
O=C(O)c1ccccc1Nc1cccc(C(F)(F)F)c1 [FLUFENAMIC ACID],–,5.63,-8.28,-3.66,4.62,Active
